From article PMC7136958, “Targeting the pregnane X receptor using microbial metabolite mimicry” (EMBO Molecular Medicine, 2020)

Key:
AhR = target: T1, AhR (Homo sapiens, UniProt P35869); test: AhR reporter assay, HepG2 cells stably expressing pCYP1A1 luciferase (AZ-AHR); format: cell-based; conditions: AZ-AHR cells, fold vs DMSO; for fold induction at 24 h, 0.001 µM / fold induction at 24 h, 0.01 µM / fold induction at 24 h, 0.1 µM / fold induction at 24 h, 1 µM / fold induction at 24 h, 10 µM: human
T1 construct: endogenous in cells; host or cells: AZ-AHR (HepG2)
T1 sequence (P35869 11-848): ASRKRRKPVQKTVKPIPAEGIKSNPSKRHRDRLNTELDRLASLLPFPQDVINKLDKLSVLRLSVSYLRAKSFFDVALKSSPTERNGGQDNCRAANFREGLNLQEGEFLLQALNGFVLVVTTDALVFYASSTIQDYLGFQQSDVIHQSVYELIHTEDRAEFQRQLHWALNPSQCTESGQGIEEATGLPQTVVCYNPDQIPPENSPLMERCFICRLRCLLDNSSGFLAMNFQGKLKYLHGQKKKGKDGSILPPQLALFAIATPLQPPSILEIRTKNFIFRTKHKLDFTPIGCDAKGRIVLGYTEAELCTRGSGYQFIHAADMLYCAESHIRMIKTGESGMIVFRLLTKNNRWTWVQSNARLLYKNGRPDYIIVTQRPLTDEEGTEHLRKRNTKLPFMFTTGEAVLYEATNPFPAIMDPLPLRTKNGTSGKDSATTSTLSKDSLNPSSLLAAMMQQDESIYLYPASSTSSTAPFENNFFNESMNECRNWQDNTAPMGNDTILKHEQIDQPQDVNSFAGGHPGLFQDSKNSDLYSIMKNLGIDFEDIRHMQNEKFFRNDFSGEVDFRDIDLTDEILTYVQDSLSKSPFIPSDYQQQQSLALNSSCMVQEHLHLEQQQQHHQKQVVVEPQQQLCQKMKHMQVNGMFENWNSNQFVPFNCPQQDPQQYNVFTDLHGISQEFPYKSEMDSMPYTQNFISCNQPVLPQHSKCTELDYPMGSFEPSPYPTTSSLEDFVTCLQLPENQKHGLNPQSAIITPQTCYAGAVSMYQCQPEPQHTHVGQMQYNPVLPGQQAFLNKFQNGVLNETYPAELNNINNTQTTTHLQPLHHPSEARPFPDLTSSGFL
Procedure: Incubations were performed in four technical replicates.

PXR = target: T2, PXR (Homo sapiens, UniProt O75469); test: PXR reporter (p3A4-luc luciferase) assay in LS180 cells transiently transfected with wild-type PXR; conditions: for fold induction at 0.001 µM / fold induction at 0.01 µM / fold induction at 0.1 µM / fold induction at 1 µM / fold induction at 10 µM / fold induction at 25 µM: LS180, read-out: FOLD INDUCTION of PXR reporter luciferase activity; for FOLD INDUCTION of PXR reporter luciferase activity: 24 h, over UT
T2 sequence (O75469 1-434): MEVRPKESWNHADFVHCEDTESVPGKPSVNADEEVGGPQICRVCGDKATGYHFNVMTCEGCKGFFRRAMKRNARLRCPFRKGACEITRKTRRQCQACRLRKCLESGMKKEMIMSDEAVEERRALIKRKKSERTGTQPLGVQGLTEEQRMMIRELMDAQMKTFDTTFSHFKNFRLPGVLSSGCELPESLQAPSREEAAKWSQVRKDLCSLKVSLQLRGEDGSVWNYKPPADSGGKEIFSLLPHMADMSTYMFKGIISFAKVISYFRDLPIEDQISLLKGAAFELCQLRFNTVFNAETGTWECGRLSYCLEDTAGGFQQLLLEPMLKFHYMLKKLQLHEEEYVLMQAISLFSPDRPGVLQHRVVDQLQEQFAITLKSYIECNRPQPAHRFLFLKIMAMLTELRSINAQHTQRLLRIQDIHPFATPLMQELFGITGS
Procedure: Incubations were performed in four technical replicates. After the treatments, cells were lysed and luciferase activity was measured on Tecan Infinite M200 Pro plate reader (Schoeller Instruments, Prague, Czech Republic). The data are expressed as fold induction ± SD of luciferase activity over the control cells (agonistic mode—in the absence of a model ligand) or as a percentage of maximal activation ± SD (antagonistic mode—in the presence of a model ligand). […] For all the transfection experiments, specifically multiplexed transfections, the control wells were mock‐transfected ([…]). However, to exclude non‐specific binding of PXR (or other factors) upstream of the luciferase gene within non‐PXR‐binding elements, we performed pilot experiments in different cell passages (P11, P14, and P17) of LS174T cells using a mock luciferase plasmid (luciferase not containing an upstream PXR‐binding element of the CYP3A4 promoter).

O=C(c1ccncc1)c1cc2ccccc2n1S(=O)(=O)c1ccccc1 [FKK5, (1-(phenylsulfonyl)-1H-indol-2-yl)(pyridin-4-yl)methanone]
fold induction at 24 h, 0.001 µM (AhR; 1 nM): 0.755 | fold induction at 24 h, 0.01 µM (AhR; 10 nM): 0.8 | fold induction at 24 h, 0.1 µM (AhR; 100 nM): 0.7 | fold induction at 24 h, 1 µM (AhR; 1µM): 0.7 | fold induction at 24 h, 10 µM (AhR; 10 µM): 1.2 | aver (mean luciferase signal of H1-H4) (PXR; 1 nM): 4417.0 | aver (mean luciferase signal of H1-H4) (PXR; 10 nM): 4539.3 | aver (mean luciferase signal of H1-H4) (PXR; 100 nM): 4741.5 | aver (mean luciferase signal of H1-H4) (PXR; 1 uM): 29157.3 | aver (mean luciferase signal of H1-H4) (PXR; 10 uM): 116028.0 | aver (mean luciferase signal of H1-H4) (PXR; 25 uM): 119010.3 | fold induction at 0.001 µM (PXR): 1.4 | fold induction at 0.01 µM (PXR): 1.4 | fold induction at 0.1 µM (PXR): 1.5 | fold induction at 1 µM (PXR): 9.1 | fold induction at 10 µM (PXR): 36.4 | fold induction at 25 µM (PXR): 37.3

O=S(=O)(c1ccccc1)n1c(C(O)c2ccncc2)cc2ccccc21 (racemic) [FKK1]
FOLD INDUCTION (AZ-AHR luciferase) (AhR; 1 nM): 0.7 fold | FOLD INDUCTION (AZ-AHR luciferase) (AhR; 10 nM): 0.746 fold | FOLD INDUCTION (AZ-AHR luciferase) (AhR; 100 nM): 1.1 fold | FOLD INDUCTION (AZ-AHR luciferase) (AhR; 1µM): 0.9 fold | FOLD INDUCTION (AZ-AHR luciferase) (AhR; 10 µM): 2.8 fold | aver (mean luciferase signal of H1-H4) (PXR; 1 nM): 3470.0 | FOLD INDUCTION of PXR reporter luciferase activity (PXR; 1 nM): 1.6 fold | aver (mean luciferase signal of H1-H4) (PXR; 10 nM): 3768.8 | FOLD INDUCTION of PXR reporter luciferase activity (PXR; 10 nM): 1.8 fold | aver (mean luciferase signal of H1-H4) (PXR; 100 nM): 3738.8 | FOLD INDUCTION of PXR reporter luciferase activity (PXR; 100 nM): 1.7 fold | aver (mean luciferase signal of H1-H4) (PXR; 1 uM): 28708.8 | FOLD INDUCTION of PXR reporter luciferase activity (PXR; 1 uM): 13.4 fold | aver (mean luciferase signal of H1-H4) (PXR; 10 uM): 56319.0 | FOLD INDUCTION of PXR reporter luciferase activity (PXR; 10 uM): 26.3 fold | aver (mean luciferase signal of H1-H4) (PXR; 25 uM): 51971.3 | FOLD INDUCTION of PXR reporter luciferase activity (PXR; 25 uM): 24.3 fold

C#CCC(O)(c1ccncc1)c1cc2ccccc2n1S(=O)(=O)c1ccccc1 (stereo not shown) [FKK6]
fold induction at 24 h, 0.001 µM (AhR; 1 nM): 0.8 | fold induction at 24 h, 0.01 µM (AhR; 10 nM): 0.7 | fold induction at 24 h, 0.1 µM (AhR; 100 nM): 0.8 | fold induction at 24 h, 1 µM (AhR; 1µM): 1.1 | fold induction at 24 h, 10 µM (AhR; 10 µM): 3.2 | aver (mean luciferase signal of H1-H4) (PXR; 1 nM): 5692.0 | aver (mean luciferase signal of H1-H4) (PXR; 10 nM): 9322.0 | aver (mean luciferase signal of H1-H4) (PXR; 100 nM): 9089.3 | aver (mean luciferase signal of H1-H4) (PXR; 1 uM): 73854.3 | aver (mean luciferase signal of H1-H4) (PXR; 10 uM): 113299.3 | aver (mean luciferase signal of H1-H4) (PXR; 25 uM): 99812.0 | fold induction at 0.001 µM (PXR): 1.8 | fold induction at 0.01 µM (PXR): 2.9 | fold induction at 0.1 µM (PXR): 2.8 | fold induction at 1 µM (PXR): 23.1 | fold induction at 10 µM (PXR): 35.5 | fold induction at 25 µM (PXR): 31.3 | PXR activation (in words) (PXR; cell-based transactivation): activated human PXR
